Measurements from ChEMBL document CHEMBL2384975, “Combination Therapy: JAK PI3K/mTOR. A Novel Approach for Cancer Treatment” (2013).

How the values were obtained:
Format in all cases: functional, BaF3
[1] = Anticancer activity against mouse BA/F3 cells expressing JAK2 V617F mutation allografted in Harlan SCID mouse assessed as mean survival days at 45 mg/kg, po by luciferase reporter gene assay (reference value: 16 days)
[2] = Anticancer activity against mouse BA/F3 cells expressing JAK2 V617F mutation allografted in Harlan SCID mouse assessed as increase in lifespan at 45 mg/kg, po by luciferase reporter gene assay relative to control
[3] = Anticancer activity against mouse BA/F3 cells expressing JAK2 V617F mutation allografted in Harlan SCID mouse assessed as mean survival days at 60 mg/kg, po by luciferase reporter gene assay (reference value: 16 days)
[4] = Anticancer activity against mouse BA/F3 cells expressing JAK2 V617F mutation allografted in Harlan SCID mouse assessed as increase in lifespan at 60 mg/kg, po by luciferase reporter gene assay relative to control

SMILES	MSD [1] [days]	Activity [2] [%]	MSD [3] [days]	Activity [4] [%]
Cn1c(=O)n(-c2ccc(C(C)(C)C#N)cc2)c2c3cc(-c4cnc5ccccc5c4)ccc3ncc21 [DACTOLISIB]	24	42		
N#CC[C@H](C1CCCC1)n1cc(-c2ncnc3[nH]ccc23)cn1 [RUXOLITINIB]			19	19
